Values quoted from earlier work as cited in paper PMC7510478, “The effect of size, charge, and peptide ligand length on kidney targeting by small, organic nanoparticles” (Bioengineering & Translational Medicine, 2020).

Experiments:
ADPKD patients = system: ADPKD patients
Source text: Chronic kidney disease (CKD) affects 600 million people globally and is characterized by gradual kidney function decline. ^1 A common form of CKD is autosomal dominant polycystic kidney disease (ADPKD), which affects over 12 million people worldwide and is characterized by renal cyst formation that can result in the need for dialysis or kidney transplant. ^2 , ^3 , ^4 , ^5 Currently, there is no cure for ADPKD and tolvaptan is the only FDA approved treatment for ADPKD. ^6 Despite enthusiasm, tolvaptan has been reported to cause several side effects including polyuria, thirst, nocturia, and dru ...

megalin = system: megalin; parameters: method as in PMID 27617593, PMID 19202329, PMID 11994745, PMID 9574443
[1] = study of 961 ADPKD patients undergoing tolvaptan treatment

Row | Compound | Patients affected by polyuria (ADPKD patients; ADPKD patients on tolvaptan) | Adverse event rate, nocturia (ADPKD patients; [1]) | Adverse event rate, thirst (ADPKD patients; [1]) | Uptake in megalin‐deficient mice (megalin)
1 | Cc1ccccc1C(=O)Nc1ccc(C(=O)N2CCCC(O)c3cc(Cl)ccc32)c(C)c1 (stereo not shown) [tolvaptan] | 38% | ~29% | approximately 55% | –
2 | [Lys–Lys–Glu–Glu–Glu]3–Lys [(KKEEE)3K] | – | – | – | significantly reduced uptake
